Molecules are shown by their SMILES. Calls of active or inactive are those of the source.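 How the source made its calls: active means AC50 no more than tenfold above the top dose tested, or full inhibition at every dose with a flat fit (cut at about 19 µM in these data); inconclusive means flat curve fit with inhibition between 30% and 70%, or poor fit; inactive means AC50 more than tenfold above the top dose tested.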

This experiment concerns HMLE_sh_eGFP viability, CellTiter-Glo luminescence, 72 h. The experiment can be described thus: viability loss of HMLE_sh_eGFP cells – cell-based, luminescence, counter-screen for HMLE_sh_ECad selective toxicity project, dose response (AID 463074).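 Further: counterscreen control line to flag general toxicity for the HMLE_sh_ECad screen; potency for loss of viability as luminescence drops below DMSO wells.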
Regarding `COc1ccc(/C=N/NC(=O)c2cc(C34CC5CC(CC(C5)C3)C4)[nH]n2)cc1O`, the AC50 was 1.8 µM.

In the case of `CCCSc1nsc(NC(=O)Nc2ccc(F)cc2F)n1`, the AC50 is 4.87 µM.

Take `Cc1cc(NC(=O)c2cc(-c3ccncc3)nc3ccccc23)ccc1Br`: the AC50 was 6.77 µM. In the case of `NS(=O)(=O)c1ccc(N/N=C/c2cn(-c3ccccc3)nc2-c2cccs2)c([N+](=O)[O-])c1`, the AC50 was 1.9 µM. Take `COC(=O)c1ccc(/C=C/c2c(-c3ccsc3)sc3ccccc23)cc1`: the AC50 was 7.46 µM. Under `CCc1cc2cccc(C)c2nc1SCC(=O)c1ccc(NC(C)=O)cc1` stands 4.62 µM; under `Oc1nc(Nc2cccc(Cl)c2)sc1/C=C1\C=Nc2ccccc21`, 3.78 µM. As for `Clc1ccc(Nc2ncnc3ccc(Br)cc23)cc1`, the AC50 was 17.5 µM. In the case of `O=S(=O)([N-]c1nc2ccccc2nc1-[n+]1ccc(Cc2ccccc2)cc1)c1ccc(Br)s1` it was 6.16 µM; in that of `CCCOc1ccc(/C=N/Nc2cc(N3CCOCC3)ncn2)c(O)c1`, 3.38 µM; in that of `CCN1CCN(Cc2ccc(OCc3ccccc3)cc2)CC1`, 4.38 µM. As to `Oc1ccc(N=Nc2ccc3ccccc3c2)cc1`, the AC50 is 7.43 µM. For the compound `O=[N+]([O-])c1ccc(-c2nc(Nc3cccc(O)c3)c3ccccc3n2)cc1`, the AC50 is 3.89 µM. In the case of `COc1ccc(Nc2nc(-c3cccc([N+](=O)[O-])c3)nc3ccccc23)cc1` it was 17.8 µM; in that of `C=CCn1c(CNc2ccccc2)nnc1SCC(=O)N/N=C/c1ccc(O)cc1O`, 3.23 µM; in that of `Cc1oc2c(F)c(F)c(F)c(F)c2c1S(=O)(=O)Nc1cccc(C(F)(F)F)c1`, 4.95 µM. In the case of `C/C(=N\NC(N)=S)c1cc(-c2ccccc2)c(-c2ccccc2)s1` it was 3.94 µM. Under `COc1ccc([C@H]2Oc3cc(O)cc(O)c3C(=O)C2[C@@H]2C(=O)c3c(O)cc(O)cc3O[C@@H]2c2ccc(OC)cc2)cc1` (some centres not stated) stands 10.6 µM; under `Cc1cccc(NC(=O)c2nc[nH]c2C(=O)N[C@@H](C)c2ccccc2)c1`, 12 µM; under `O=C(O)CCCCCN1C(=O)/C(=C\c2cn(-c3ccccc3)nc2-c2cccs2)SC1=S`, 3.5 µM. For `COc1cc(OC)cc(-c2sc3ccc(OC)cc3c2C#CCO)c1`, the AC50 was 6.89 µM. In the case of `COc1ccccc1NC(=O)c1c(Nc2ccccc2F)sc(C(=O)Nc2cccc(Cl)c2)c1N` it was 2.95 µM. In the case of `COc1ccccc1NC(=O)Nc1ccc(-n2ccc(C(F)(F)F)n2)cc1` it was 10.3 µM; in that of `NC(=O)CC(NC(=O)Cc1ccc(Br)cc1)c1ccc(N2CCC(Cc3ccccc3)CC2)c([N+](=O)[O-])c1` (configuration not stated), 14.7 µM. Under `Nc1ccccc1N=Cc1ccc(-c2cccc(Cl)c2)o1` stands 4.22 µM; under `CC(C)(C)c1cc(Cl)ccc1OCCOCCN1CCCC1`, 6.54 µM. Regarding `c1cc2cc(-c3c(-c4ccc5c(c4)OCO5)noc3-c3ccsc3)ccc2[nH]1`, the AC50 is 4.19 µM. Under `COc1ccc(-c2csc(NC(=S)NC(=O)/C=C/c3ccco3)n2)cc1Br` stands 1.98 µM. In the case of `O=C(N/N=C/c1ccc2c(c1)OCO2)c1ccc(COCC(F)(F)C(F)F)cc1` it was 1.64 µM; in that of `CC(C)C[C@H](CO)N(Cc1ccccc1)S(=O)(=O)N(Cc1ccccc1)[C@@H](CO)CC(C)C`, 3.49 µM; in that of `COc1ccc(C(c2c[nH]c3ccccc23)c2c[nH]c3ccccc23)cc1O`, 4.62 µM.

`CC(=O)c1ccc(-c2ccc([C@H]3[C@@H]4C=CCC[C@@]4(C)C(=O)N3Cc3ccccc3)c(F)c2)cc1`: the AC50 is 4.17 µM. Under `CCCCCCSc1ccc([C@H]2N[C@@](C)(C(=O)OC)[C@H]3C(=O)N(CC)C(=O)[C@@H]23)cc1` stands 19.8 µM; under `Cc1ccc(CN2CCSc3ccc(C(=O)NCc4ccco4)cc32)cc1`, > 19.5 µM (inactive). In the case of `O=C(CCN1Cc2ccccc2C1)c1ccc2c(c1)OCCO2` it was 15.1 µM. Turning to `Cc1nc(N2CCCCC2)c2c(C)c(C(=O)Nc3ccccc3C(F)(F)F)sc2n1`, the AC50 is 1.85 µM. On to `Cc1ccc(S(=O)(=O)N2[C@@H](c3ccc(C(C)(C)C)cc3)C(C(=O)O)=CC[C@H]2c2cccc(Cl)c2)cc1`, for which the AC50 is 4.26 µM.

For `CN1CC(c2ccccc2)C2(SC(=S)N(Cc3ccco3)C2=O)C12C(=O)Nc1ccccc12` (configuration not stated), the AC50 is 7.31 µM.

Take `O=C(NC(=S)NCCc1ccccc1)C1CCCCC1`: the AC50 is 18.4 µM.

With `CCCCNc1nc(Nc2ccc(C)c(Cl)c2)c2cnn(C)c2n1`, the AC50 is 11.5 µM. In the case of `Cc1cccc(C(=O)Nc2ccc(C(=O)Nc3ccc(O)cc3)cc2)c1` it was 5.08 µM. In the case of `FC(F)(F)c1cc(CCN2C(=S)NC[C@@H]2CC2CCCCC2)cc(C(F)(F)F)c1` it was 7.29 µM. Under `COc1ccc(Cn2c3ccc(OC)cc3c3nc4ccccc4nc32)cc1` stands 17.8 µM; under `O=[N+]([O-])c1ccc(S(=O)(=O)CC(CN2CCCCC2)N2CCCCC2)cc1` (configuration not stated), 5.37 µM; under `CN[C@H]1CCc2cc(OC)c(OC)c(OC)c2-c2ccc(N(C)CC(OC)OC)c(=O)cc21`, 2.15 µM. With `O=S(=O)(Nc1ccc(-n2cccc2)cc1)c1ccc(Cl)c(Cl)c1`, the AC50 is 5.21 µM. As for `COc1ccccc1CNC(=S)Nc1ccc2nc(N3CCN(C)CC3)cc(C)c2c1`, the AC50 is 0.427 µM. Under `Cc1ccc(OCCSc2nc(NC(C)C)nc(NC(C)C)n2)cc1` stands 1.46 µM; under `C=CCC[C@H](Cc1ccc(F)cc1)C(=O)O[C@H](CNC(=O)[C@@H](CC=C)CC(=O)N(CCO)Cc1ccccc1)c1ccccc1`, 7.4 µM; under `Cc1cc(C(=O)Nc2nc3c(s2)CCCC3)cs1`, > 19.5 µM (inactive). Under `CCC/C(=C1/c2ccccc2C(=O)N1c1ccccc1)c1ccc2c(c1)OCCO2` stands 4.08 µM; under `O=[N+]([O-])c1cc(C(F)(F)F)ccc1NCCNC(=S)Nc1ccc(Cl)cc1`, 5.24 µM; under `Cn1cccc1-c1nc2ccccc2n1Cc1ccccc1`, 13.6 µM. For the compound `CN(C)c1ccc(/C=N/NC(=O)C(=O)/C=C2\NC3(CCCC3)Cc3ccccc32)cc1`, the AC50 is 6.5 µM. In the case of `Cc1ccc(OCCCCN(C)Cc2ccccc2)c(Br)c1` it was 12.5 µM.

Take `Oc1ccccc1-n1c(-c2ccccc2)ccc1-c1ccccc1`: the AC50 was 7.62 µM.

`CCCc1ccc(-c2cc(NC(=O)CSc3nnc(N)s3)n(-c3ccccc3)n2)cc1`: the AC50 is 6.67 µM. Under `CCCCCCSc1cccc(-c2nc3ccc(Cl)cn3c2NCc2ccccc2)c1` stands 3.12 µM. For the compound `CCOC(=O)c1c(C)sc2c1N(C(=O)CCl)c1cc(Cl)ccc1S2`, the AC50 was 3.66 µM.

With `CCOC(=O)C1=C(CSc2nc3ccccc3s2)NC(=O)NC1c1ccc(OC)cc1` (configuration not stated), the AC50 was 10.8 µM. In the case of `Cc1ccc(N2C(=O)NC(=O)/C(=C/C=C/c3ccco3)C2=O)cc1` it was 3.29 µM; in that of `Cc1cc(C)c2nc(N3CCCC(C(=O)N4CCN(c5ncccn5)CC4)C3)sc2c1` (configuration not stated), 11.2 µM; in that of `Cc1nc(C2CCC3C4CCC5=CC(=O)CC[C@]5(C)C4CC[C@]23C)cs1` (some centres not stated), 7.15 µM.

With `CCOc1cc2c(cc1OCC)-n1cccc1C(c1ccc(C(C)C)cc1)NC2` (configuration not stated), the AC50 was 6.13 µM.

Consider `Cn1nc(-c2ccc(Cl)cc2)c2cc(C(=O)NCCCN3CCOCC3)sc21`, for which the AC50 was 5.94 µM. In the case of `CC(=O)Oc1ccc(C#C/C=C2\c3ccccc3C(=O)N2c2ccccc2)cc1` it was 4.92 µM; in that of `N=c1c2c(ncn1Cc1ccco1)Oc1ccc3ccccc3c1C2c1ccccc1` (configuration not stated), 4.5 µM; in that of `CC/C(=C\C1CCCCC1)C(NP(=O)(c1ccccc1)c1ccccc1)c1ccccc1` (configuration not stated), 3.49 µM. Under `Cc1ccc(-c2csc(NCCn3c(-c4ccncc4)nc4cc(C(F)(F)F)ccc43)n2)cc1` stands 10.7 µM; under `CCC(C)c1ccc(NC(=O)C2CC3CCC2C3)cc1` (configuration not stated), 4.98 µM. Under `Cc1cc(N=Nc2ccc3ccccc3c2)ccc1O` stands 6.83 µM; under `Cc1cc(C)nc(SCc2ccc(C(=O)N/N=C/c3cccc(O)c3O)cc2)n1`, 3.71 µM.

As for `CC(/C=N/NC(=O)c1cc(-c2ccc(C)s2)[nH]n1)=C\c1ccccc1`, the AC50 is 4.35 µM. For the compound `Cc1ccc(NS(=O)(=O)c2ccc(Cl)c(NC(=S)NC(=O)C3CCCCC3)c2)cc1Cl`, the AC50 is 3.58 µM. As for `COc1cc2c(cc1NC(=O)CN(C)Cc1cccc(OC)c1OC)oc1ccccc12`, the AC50 was 3.56 µM.

As for `Cc1ccc(C)c(NC(=O)/C(C#N)=C/c2cn(CC(=O)NCc3ccco3)c3ccccc23)c1`, the AC50 was > 19.5 µM (inactive). On to `COc1ccc(OC)c(NC(=O)c2nnn(Cc3ccccc3C)c2N)c1`, for which the AC50 is 3.61 µM.

Consider `CCOc1ccc(N/C(N)=N/c2nc(CSc3nnc(C)s3)cc(=O)[nH]2)cc1`, for which the AC50 is 0.609 µM.

Turning to `CNC(=O)NC(=O)C(C)OC(=O)c1oc2ccccc2c1CSc1ccc(Cl)cc1` (configuration not stated), the AC50 is 19.3 µM.

`Cc1ccc(-c2cc(C(=O)N3CCN(c4ccc(O)cc4)CC3)c3ccccc3n2)cc1`: the AC50 is 8.38 µM.

On to `O=C(Nc1ccccc1)NN(C(=O)CCl)c1ccccc1`, for which the AC50 was 6.45 µM.

As to `CC(Nc1nc(-c2ccccc2)nc2ccccc12)c1ccccc1` (configuration not stated), the AC50 is 5.38 µM. Under `COc1cc(/C=C(\C#N)c2ccccn2)ccc1OCC(=O)Nc1ccc(Br)cc1` stands 2.7 µM; under `O=C(Nc1ccc2c(c1)OCO2)c1ccc(COc2ccc3c(c2)CCC3)o1`, 6.25 µM. Under `Oc1ccc(/C=C/c2nc(-c3ccccc3O)n(-c3ccccc3)n2)cc1` stands 6.7 µM. Under `Cc1c(O)cccc1C(=O)N[C@@H](CSc1ccccc1)[C@H](O)CN1C[C@H]2CCCC[C@H]2C[C@H]1C(=O)NC(C)(C)C` stands 7.33 µM. Take `COC(=O)C1=C(C)N(Cc2ccccc2)C(=NCCc2c[nH]c3ccccc23)N[C@H]1c1cccc(F)c1`: the AC50 was 7.06 µM.

For the compound `c1cc(SC2CCCCC2)cc(-c2nc3cnccn3c2NC2CCCCC2)c1`, the AC50 is 1.78 µM. Under `COc1cc(/C=C2\C(=O)ON=C2c2ccc(Cl)cc2)ccc1O` stands 1.55 µM; under `CCCn1c(SCC#N)nc2c(c1=O)C1(CCCC1)Cc1ccccc1-2`, 1.52 µM. In the case of `CC(=O)c1ccc(N2CCC(c3cc(-c4ccc(Cl)cc4Cl)n[nH]3)CC2)c([N+](=O)[O-])c1`, the AC50 was 4.17 µM. On to `CC(C)(C)c1cc(-c2nc(N)nc(N)n2)c(O)c(C(C)(C)C)c1`, for which the AC50 is 3.57 µM.

The AC50 is the concentration at which the activity in the assay is half-maximal.
